Results published in PubChem BioAssay AID1963972 (Molecular Pharmacology Branch, DTP, NCI, 2024).
One block for each compound: values may come before it.

System: 945468-187-T-J2-PDC spheroids viability
Assay: Anticancer human tumor 945468-187-T-J2-PDC patient-derived rectal carcinoma cell line growth inhibition [PI3K]
Conditions: spheroids with HUVEC and MSC; for IC50: curve of first compound; for viability, T/C: stronger effect = lower value
In short: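 Tumor cells grown as multi-cell spheroids with HUVEC endothelial cells and MSC fibroblast-like stroma were treated with targeted agents combined with inavolisib, alpelisib, duvelisib or copanlisib. Doses fell in half-log steps from near clinical Cmax, else from 10 microM. Viability was measured.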

[1] = second compound 0.0316 µM, first compound 0.0316 µM
[2] = second compound 0.0316 µM, first compound 0.1 µM
[3] = second compound 0.0316 µM, first compound 0.316 µM
[4] = second compound 0.0316 µM, first compound 1 µM
[5] = second compound 0.0316 µM, first compound 3.16 µM
[6] = second compound 0.0316 µM, first compound 10 µM
[7] = second compound 0.1 µM, first compound 0.0316 µM
[8] = second compound 0.1 µM, first compound 0.1 µM
[9] = second compound 0.1 µM, first compound 0.316 µM
[10] = second compound 0.1 µM, first compound 1 µM
[11] = second compound 0.1 µM, first compound 3.16 µM
[12] = second compound 0.1 µM, first compound 10 µM
[13] = second compound 0.316 µM, first compound 0.0316 µM
[14] = second compound 0.316 µM, first compound 0.1 µM
[15] = second compound 0.316 µM, first compound 0.316 µM
[16] = second compound 0.316 µM, first compound 1 µM
[17] = second compound 0.316 µM, first compound 3.16 µM
[18] = second compound 0.316 µM, first compound 10 µM
[19] = second compound 1 µM, first compound 0.0316 µM
[20] = second compound 1 µM, first compound 0.1 µM
[21] = second compound 1 µM, first compound 0.316 µM
[22] = second compound 1 µM, first compound 1 µM
[23] = second compound 1 µM, first compound 3.16 µM
[24] = second compound 1 µM, first compound 10 µM
[25] = second compound 3.16 µM, first compound 0.0316 µM
[26] = second compound 3.16 µM, first compound 0.1 µM
[27] = second compound 3.16 µM, first compound 0.316 µM
[28] = second compound 3.16 µM, first compound 1 µM
[29] = second compound 3.16 µM, first compound 3.16 µM
[30] = second compound 3.16 µM, first compound 10 µM
[31] = second compound 10 µM, first compound 0.0316 µM
[32] = second compound 10 µM, first compound 0.1 µM
[33] = second compound 10 µM, first compound 0.316 µM
[34] = second compound 10 µM, first compound 1 µM
[35] = second compound 10 µM, first compound 3.16 µM
[36] = second compound 10 µM, first compound 10 µM
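Note: spheroids exposed to compounds for seven days before reading.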

IC50 (second compound 0.0316 µM): > 10 µM | IC50 (second compound 0.1 µM): > 10 µM | IC50 (second compound 0.316 µM): > 10 µM | IC50 (second compound 1 µM): > 10 µM | IC50 (second compound 3.16 µM): > 10 µM | IC50 (second compound 10 µM): > 10 µM
SMILES: Cn1ncc(Cl)c1-c1cc(C(=O)NC(CN)Cc2cccc(F)c2)sc1Cl (centres undefined) + Cc1nc(NC(=O)N2CCCC2C(N)=O)sc1-c1ccnc(C(C)(C)C(F)(F)F)c1
viability, T/C [1]: 94% | viability, T/C [2]: 123% | viability, T/C [3]: 104% | viability, T/C [4]: 77.9% | viability, T/C [5]: 89.8% | viability, T/C [6]: 71.6% | viability, T/C [7]: 116% | viability, T/C [8]: 134% | viability, T/C [9]: 104% | viability, T/C [10]: 101% | viability, T/C [11]: 72.3% | viability, T/C [12]: 65.9% | viability, T/C [13]: 102% | viability, T/C [14]: 104% | viability, T/C [15]: 124% | viability, T/C [16]: 92.1% | viability, T/C [17]: 72.3% | viability, T/C [18]: 70.9% | viability, T/C [19]: 97.4% | viability, T/C [20]: 92.7% | viability, T/C [21]: 97.4% | viability, T/C [22]: 88.4% | viability, T/C [23]: 77.9% | viability, T/C [24]: 54.9% | viability, T/C [25]: 86.7% | viability, T/C [26]: 87.7% | viability, T/C [27]: 88% | viability, T/C [28]: 75.1% | viability, T/C [29]: 72.5% | viability, T/C [30]: 60% | viability, T/C [31]: 85.9% | viability, T/C [32]: 79.8% | viability, T/C [33]: 92.5% | viability, T/C [34]: 89% | viability, T/C [35]: 59.5% | viability, T/C [36]: 56.6%

IC50 (second compound 0.0316 µM): > 10 µM | IC50 (second compound 0.1 µM): > 10 µM | IC50 (second compound 0.316 µM): > 10 µM | IC50 (second compound 1 µM): > 10 µM | IC50 (second compound 3.16 µM): > 10 µM | IC50 (second compound 10 µM): > 10 µM
SMILES: Cn1nccc1Nc1nccc(-c2ccn(C(CO)c3ccc(Cl)c(F)c3)c(=O)c2)n1 (centres undefined) + Cc1nc(NC(=O)N2CCCC2C(N)=O)sc1-c1ccnc(C(C)(C)C(F)(F)F)c1
viability, T/C [1]: 107% | viability, T/C [2]: 116% | viability, T/C [3]: 88.5% | viability, T/C [4]: 79.3% | viability, T/C [5]: 103% | viability, T/C [6]: 72.8% | viability, T/C [7]: 112% | viability, T/C [8]: 110% | viability, T/C [9]: 108% | viability, T/C [10]: 105% | viability, T/C [11]: 87.4% | viability, T/C [12]: 82.1% | viability, T/C [13]: 129% | viability, T/C [14]: 107% | viability, T/C [15]: 98.1% | viability, T/C [16]: 89.2% | viability, T/C [17]: 105% | viability, T/C [18]: 80.7% | viability, T/C [19]: 118% | viability, T/C [20]: 108% | viability, T/C [21]: 104% | viability, T/C [22]: 119% | viability, T/C [23]: 85.2% | viability, T/C [24]: 74.8% | viability, T/C [25]: 85.9% | viability, T/C [26]: 119% | viability, T/C [27]: 85.6% | viability, T/C [28]: 82.8% | viability, T/C [29]: 79.7% | viability, T/C [30]: 88.5% | viability, T/C [31]: 76.8% | viability, T/C [32]: 98.3% | viability, T/C [33]: 71.1% | viability, T/C [34]: 86.9% | viability, T/C [35]: 88% | viability, T/C [36]: 72.4%
